From patent publication US20250025500A1, “PHOSPHATASE INHIBITORS AS NK CELLS MODULATORS FOR THE TREATMENT OF CANCER” (Kanyr Pharma Inc., priority 2021, published 2025)

Tests used:
Assay type in all cases: cell-based, Human
[1] = system: NK-92 cells against K-562 cells; experiment: NK-92 cytolytic assay against K-562 tumor target cells (flow cytometry)
Experimental: Human NK cell line NK-92 was purchased from American Type Culture Collection (ATCC) and cultured in α-MEM Essential Medium (no ribonucleoside and deoxyribonucleoside) supplemented with 0.2 mM Myo-inositol, 0.02 mM Folic Acid, 0.1 mM β-mercaptoethanol, 1% of Non-essential Amino Acids, 1×L-Glutamax, 1% of Penicillin/Streptomycin, 12.5% of heat-inactivated Horse, and 12.5% of heat-inactivated Characterized Fetal Bovine Serum or FBS. The media was supplemented freshly with 200 IU/mL of IL-2 upon cell thawing for one passage and 100 IU/mL of IL-2 for cell expansion. Human tumor cell lines K-562 and Reh were purchased from ATCC and were cultured in RPM11640 Medium supplemented with 1% of Penicillin/Streptomycin and 10% of heat inactivated FBS. HEK293T/17 cells and HCT116 cells were cultured in Dulbecco's Modified Eagle's Medium (DMEM) High Glucose Medium supplemented with 1% of Penicillin/Streptomycin and 10% of FBS. All cell lines were maintained in 5% CO2, 37° C. incubator, except that NK-92 were maintained in 6.5% CO2 incubator at 37° C. All cell lines were maintained below 30 passages and tested regularly for mycoplasma infection using PCR.
NK-92 anti-tumor cytolysis function was assessed by flow cytometry-based analysis. Tumor target cells K-562 and Reh were labelled with cell tracker CFSE ([…]) or CMRA (5 μM) according to manufacturer's protocol at a maximum of one day before cytolysis experiment. On the experiment day, labelled tumor target cells were washed once with PBS and resuspend to desired cell concentration in complete cell media. NK-92 cells were washed and resuspended in complete media without cytokines to desired cell concentration. NK-92 cells and tumor target cells were plated at various effector: target (E:T) ratios with basal cell numbers at 50,000 cells per well in round-bottom 96-well plate and were co-cultured for 3 hours in 5% CO2, 37° C. incubator. After co-culture, cells were washed once with ice-cold PBS and stained with fixable viability dyes: Aqua (Invitrogen™) or UV Blue (Invitrogen™) or eFluor 780 (eBioscience Invitrogen™) at 1:2000 in dark for 20 mins at 4° C. Stained cells were washed twice with ice cold PBS and were fixed with 1% Paraformaldehyde (PFA) for 1 hour or 2% PFA for 30 mins in dark at 4° C. Flow cytometry sample acquisition was performed with BDO LSRFortessa™ with a UV laser at Flow Cytometry Core Facility, McGill University, and data was analyzed with FlowJo™ 10.7.1 and summarized with Prism™ 9 (GraphPad™). Calculation for % of specific cytolysis was followed by the equation: […]

NK-92 cells [2] = experiment: Degranulation assay of NK-92 (CD107a, perforin, granzyme B)
Experimental: (§1) NK-92 cells pre-treated with L598 (30 μM) or vehicle control were stimulated with K-562 tumor target cells [effector: target (E:T) at 1:1] or PMA/lonomycin (1 μg/mL each) or no-stimulation control with K-562 complete media, respectively. Anti-CD107a or LAMP-1 antibody (1:100, PE/Cy7 conjugated, clone H4A3, from BioLegend®) was added to cells at the start of degranulation assay. Golgi stop (containing Monensin, 1 μM) and Golgi plug (containing Brefeldin A, 4 μg/mL) were added to cells one hour after degranulation assay started and were kept until the end of the 6-hour-degranulation assay. Intracellular staining of GrB (1:40, PE conjugated, clone QA18A28, from BioLegend®) and PRF (1:40, FITC conjugated, clone B-D48, from BioLegend®) were performed with the Fixation/Permeabilization Solution Kit (BD® Biosciences) according to the manufacture's protocol. Cells were stained with fixable viability dye (1:2000) for 20 mins on ice and in dark, and blocked with FcBlock (1:20, diluted in 1× Perm/Wash buffer, Human truStain FcX from BioLegend®) for 5 mins at room temperature and in dark before intracellular staining. Cell gating and percentage of population quantification was based on no-stimulation control. For kinetics of degranulation assay, measurements were taken over three hours at 15 mins, 30 mins, 60 mins, 120 mins and 180 mins, with L598 (30 μM, three days) treated group and vehicle control group under the condition of tumor target cell K-562 stimulation (E: T at 1:1) or no stimulation. Intracellular cytolytic granule contents GrA, GrB and PRF were measured as mentioned previously.

NK-92 cells [3] = experiment: qRT-PCR of lytic granule and IFNG mRNA in NK-92; conditions: steady state
Experimental: Total RNA was isolated with Qiagen™ RNeasy® Mini Kit™ without DNase I on column digestion, according to the manufactures protocol. Purified total RNA was resuspended in Dnase free, Rnase free, Protease free sterile water and quantified with NanoDrop™. A260/280 was above 2.0 (data not shown). RNA integrity was checked by gel electrophoresis. 500 ng of RNA was reverse transcribed into cDNA using the SuperScript™ III Reverse Transcriptase Kit™ (Thermo Fisher Scientific™), according to the manufacturer's protocol with random primer and Oligo(dT) 20 primer. Synthesized cDNA was treated with RNaseH. qRT-PCR was performed with BioRad™ CFX96 Real Time PCR Detection™ system using FastStart Essential DNA Green Master™ according to the manufacturer's instructions. TBP and B2M was used as housekeeping genes. Delta delta Cq method was used for analyzing relative expression of gene of interests with normalization to housekeeping genes.

NK-92 cells [4] = experiment: Lytic granule protein expression in NK-92 (flow cytometry, Western blot)
Experimental: (§2) Total cell lysate was prepared with modified RIPA buffer (1M Tris-HCl (pH 7.5), 5M NaCl, 0.25% sodium deoxycholate, 10% NP-40 and 10 mM sodium fluoride) supplemented with ethylenediaminetetraacetic acid (EDTA)-free protease inhibitor (Roche™) and 2 mM sodium orthovanadate (Sigma-Aldrich™). Protein levels were quantified by bicinchoninic acid (BCA) assay. Protein lysate was separated by 10% SDS-PAGE and Western analysis was performed using primary antibodies listed in the tables below followed with horseradish peroxidase (HRP, 1:10,000, Jackson ImmunoResearch™) conjugated secondary antibodies.
as §1

[5] = system: SMAD2, SOCS1, SOCS3 in NK-92 cells; experiment: Western blot of phospho-SMAD2, SOCS1 and SOCS3 in NK-92; conditions: with inhibitor treatment
Experimental: as §2

NK-92 cells [6] = experiment: Multi-response analysis: cytokine production with degranulation in NK-92; conditions: 30 μM three days, tumor cell or PMA and ionomycin stimulation
Experimental: as §1, with “For kinetics of degranulation assay, measurements were taken over three hours at 15 mins, 30 mins, 60 mins, 120 mins and 180 mins, with L598 (30 μM, three days) treated group and vehicle control group under the condition of tumor target cell K-562 stimulation (E: T at 1:1) or no stimulation.” left out

[7] = PMA/ionomycin 1 μg/mL each, six hours, vs control
[8] = three-hours cytolytic assay, K-562 stimulation

Substance: 7-bromo-6-phosphono(difluoro-methyl)-3-napthalenonitrile [L598]
- NK-92 cytolysis against K-562 in presence of TGF-β1, vs vehicle control ([1]; 10 μM with TGF-β 10 ng/mL, IL-2 media, three days): continued exhibiting enhanced anti-tumor cytolysis
- cytolysis against K-562 after re-treatment ([1]; additional two-days treatment at same concentration): once more improved the anti-tumor cytolysis function to a similar level of the initial treatment
- tumor cytolysis by NK-92 against K-562 with inhibitor titration ([1]; dosage increased up to 90 μM, three days, various E:T ratios): gradual increasing of tumor cytolysis
- enhanced cytolysis against K-562 after inhibitor withdrawal ([1]; withdrawn for three days after initial 30 μM treatment): reversible
- percentage of degranulating NK-92 cells (surface CD107a and intracellular lytic granules) (NK-92 cells [2]; 30 μM pre-treatment, K-562 stimulation six hours, vs control): smaller percentage
- dead tumor target K-562 cells in degranulation assay (NK-92 cells [2]; K-562 stimulation E:T 1:1, vs control cells): more tumor target K-562 cells were found dead
- degranulated NK-92 cells (CD107a+, Perforin− or Granzyme B−) under PMA and ionomycin (NK-92 cells [2]; [7]): less
- degranulating NK-92 cells under PMA and ionomycin (NK-92 cells [2]; [7]): more
- percentage of CD107a−, Perforin+ or CD107a−, Granzyme B+ population (NK-92 cells [2]; after six-hours K-562 stimulation, vs control): larger percentage
- time from which granzyme B is degranulated more rapidly (NK-92 cells [2]; [8]): 60 min
- time from which perforin is degranulated more rapidly (NK-92 cells [2]; [8]): 30 min
- mRNA expression of perforin, granzyme A, granzyme B and granzyme K (NK-92 cells [3]; 30 μM three days): upregulated
- IFN-γ mRNA (NK-92 cells [3]; 30 μM): upregulation
- thresholds of maximal expression of perforin and granzyme B (NK-92 cells [4]; IL-2 titration, 30 μM): upregulated
- fold increase of perforin and granzyme B MFI over vehicle control (NK-92 cells [4]; day three, IL-2 1250 IU/mL, 30 μM): approximately two-fold
- protein expression of perforin and granzyme B (NK-92 cells [4]; gradual increasing concentration, three days): upregulated in a dosage dependent manner
- maximal expression of lytic granules after withdrawal, vs control (NK-92 cells [4]; inhibitor withdrawn three consecutive days): similar
- fold change of perforin and granzyme B after withdrawal (NK-92 cells [4]; inhibitor withdrawn three consecutive days, IL-2 titration): around one-fold
- fold change of intracellular perforin and granzyme over control (NK-92 cells [4]; one-day treatment, IL-2 titration, 30 μM): started improving
- granzyme A protein expression (NK-92 cells [4]; with or without inhibitor treatment): relatively stable
- granzyme B expression, treatment vs control group, without IL-2 (NK-92 cells [4]; without IL-2 stimulation): almost no difference
- TGF-β1 activated phosphorylation of SMAD2 [5]: did not change significantly
- expression of SOCS1 and SOCS3 [5]: did not change
- percentages of CD107a+, IFN-γ+ and CD107a+, TNF-α+ cells (NK-92 cells [6]): larger percentages
